Measurements: patent EP2236511A2, “LIGANDS OF ALPHA-ADRENOCEPTORS AND OF DOPAMINE, HISTAMINE, IMIDAZOLINE AND SEROTONIN RECEPTORS AND THE USE THEREOF” (priority 2007, dated 2009)
Structures can show the parent of a compound that is named as a salt. Where two headings read alike, the source gives them in different places.

Key:
male mice of BALB/c line = experiment: Passive Avoidance of mice in the Shuttle Chamber, memory disturbed by Scopolamine; assay type: in vivo; conditions: Scopolamine 0.3 mg/kg, injected 30 minutes before training; figures 1-3
Experimental: Example 14. […] A shuttle chamber (Ugo Basile, Italy) consisted of two sections was used. […] The sections were connected through a hole which could be overlapped by a vertical door. The floor was made of transverse metal bars on which DC current impulses could be fed. Experiments were carried out in aged male mice of BALB/c line weighing 20-24 grams.
Each group consisted of at least 8 animals. Animal was placed in light section, and latent period of the first entry into dark chamber was registered. Then the vertical door was closed and the animal was punished by 0.6 mA DC current for 3 seconds. After that it was taken back to its homecage. In 22-24 hours the same animal was placed again in light section of the shuttle chamber and latent period of its first entry into dark section, the total time of its stay in light section, and the number of entries into dark section, were registered. Each monitoring lasted for 5 minutes.
Testing was carried out during the day time in isolated laboratory using white noise at level of about 70 decibel above human hearing threshold.
Scopolamine causes the disturbance of training (memory loss) that results in […].

[1] = target: T1, recombinant human 5-HT2C receptor (Homo sapiens, UniProt P28335); experiment: Radioligand binding to serotonin receptor 5-HT2C ([3H] Mesulergine, CHO-K1 membranes); conditions: read-out: 5-HT2C % inhibition
T1 construct: expressed in transfected cells; host or cells: CHO-K1
T1 sequence (P28335 33-458): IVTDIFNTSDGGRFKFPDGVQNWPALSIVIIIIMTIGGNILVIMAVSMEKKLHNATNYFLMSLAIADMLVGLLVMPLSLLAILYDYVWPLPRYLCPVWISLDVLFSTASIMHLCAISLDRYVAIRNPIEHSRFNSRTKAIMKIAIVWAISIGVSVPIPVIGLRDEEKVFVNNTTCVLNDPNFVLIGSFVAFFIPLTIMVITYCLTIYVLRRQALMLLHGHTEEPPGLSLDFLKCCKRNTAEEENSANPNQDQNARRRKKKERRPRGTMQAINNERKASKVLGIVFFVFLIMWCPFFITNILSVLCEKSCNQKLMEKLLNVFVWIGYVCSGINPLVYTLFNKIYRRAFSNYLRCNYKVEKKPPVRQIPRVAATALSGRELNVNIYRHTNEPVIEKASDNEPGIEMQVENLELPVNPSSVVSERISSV
Source text: J Neurochem. 69: 1449 - 1458, 1997]. […] SB242084 is used as positive control.

human α1D receptor = target: T2, human α1D receptor (Homo sapiens, UniProt P25100); experiment: Radioligand binding to adrenergic receptor α1D ([3H] Prazosin, HEK-293 membranes); conditions: for inhibition at 10 µM: read-out: α-Adrenoceptor, % inhibition α1D; for α-Adrenoceptor, % inhibition α1D: 10 µM ligand
T2 construct: expressed in transfected cells; host or cells: HEK-293
T2 sequence (P25100 1-572): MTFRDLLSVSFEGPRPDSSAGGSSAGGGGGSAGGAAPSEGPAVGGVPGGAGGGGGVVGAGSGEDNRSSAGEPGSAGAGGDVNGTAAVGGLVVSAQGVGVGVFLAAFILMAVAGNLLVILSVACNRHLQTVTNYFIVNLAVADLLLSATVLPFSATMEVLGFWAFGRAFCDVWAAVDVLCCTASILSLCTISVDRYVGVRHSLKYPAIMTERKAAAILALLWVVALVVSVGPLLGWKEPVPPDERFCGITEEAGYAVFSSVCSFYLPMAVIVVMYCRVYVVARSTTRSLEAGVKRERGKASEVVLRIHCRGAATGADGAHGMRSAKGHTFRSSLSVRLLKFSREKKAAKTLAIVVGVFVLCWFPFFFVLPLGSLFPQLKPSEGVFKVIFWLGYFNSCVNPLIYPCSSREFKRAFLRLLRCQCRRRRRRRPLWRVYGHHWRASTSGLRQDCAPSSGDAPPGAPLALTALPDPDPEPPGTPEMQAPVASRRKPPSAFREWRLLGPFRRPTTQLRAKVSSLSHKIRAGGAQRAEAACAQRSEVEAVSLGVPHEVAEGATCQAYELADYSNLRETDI
Source text: 6-C. […] For this purpose sDNA of human α1D receptor is expressed in HEK-293 cells, as it was described in [TL Theroux, TA Esbenshade, RD Peavy and KP Minneman. Coupling efficiencies of human alpha 1-adrenergic receptor subtypes: titration of receptor density and responsiveness with inducible and repressible expression vectors. Mol Pharmacol.; 50: 1376-1387, 1996]. […] Characterization of an α1D-adrenoceptor mediating the contractile response of rat aorta to noradrenaline. […] Prazosin is used as positive control.

adrenergic receptor α1B = target: T3, adrenergic receptor α1B (Rattus norvegicus, UniProt P15823); experiment: Radioligand binding to adrenergic receptor α1B ([3H] Prazosin, rat liver membranes); conditions: for α-Adrenoceptor, % inhibition α1B: 10 µM ligand
T3 construct: membrane species from rat liver (rat of Wistar breed) are prepared; from tissue; host or cells: rat (Wistar) liver
T3 sequence (P15823 1-515): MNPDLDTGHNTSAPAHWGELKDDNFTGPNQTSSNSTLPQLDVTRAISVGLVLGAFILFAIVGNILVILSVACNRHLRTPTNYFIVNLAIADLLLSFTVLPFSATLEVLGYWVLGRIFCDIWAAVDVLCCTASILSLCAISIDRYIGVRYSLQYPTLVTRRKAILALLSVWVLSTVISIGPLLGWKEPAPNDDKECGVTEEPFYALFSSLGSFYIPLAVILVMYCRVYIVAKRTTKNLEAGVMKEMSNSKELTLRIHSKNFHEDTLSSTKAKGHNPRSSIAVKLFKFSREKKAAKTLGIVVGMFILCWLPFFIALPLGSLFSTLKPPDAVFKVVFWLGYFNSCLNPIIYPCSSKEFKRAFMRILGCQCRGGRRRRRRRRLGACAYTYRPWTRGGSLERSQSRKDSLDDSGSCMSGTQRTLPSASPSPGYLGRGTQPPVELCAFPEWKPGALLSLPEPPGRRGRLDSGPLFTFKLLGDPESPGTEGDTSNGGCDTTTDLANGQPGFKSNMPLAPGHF
Source text: Species heterogeneity of hepatic α1A-, α1B-, and α1C-subtypes. Biochem Biophys Res Commun. […] Prazosin is used as positive control.

human α2A receptor = target: T4, human α2A receptor (Homo sapiens, UniProt P08913); experiment: Radioligand binding to adrenergic receptor α2A ([3H] MK-912, Sf9 membranes)
T4 construct: expressed in transfected cells; host or cells: Sf9
T4 sequence (P08913 1-465): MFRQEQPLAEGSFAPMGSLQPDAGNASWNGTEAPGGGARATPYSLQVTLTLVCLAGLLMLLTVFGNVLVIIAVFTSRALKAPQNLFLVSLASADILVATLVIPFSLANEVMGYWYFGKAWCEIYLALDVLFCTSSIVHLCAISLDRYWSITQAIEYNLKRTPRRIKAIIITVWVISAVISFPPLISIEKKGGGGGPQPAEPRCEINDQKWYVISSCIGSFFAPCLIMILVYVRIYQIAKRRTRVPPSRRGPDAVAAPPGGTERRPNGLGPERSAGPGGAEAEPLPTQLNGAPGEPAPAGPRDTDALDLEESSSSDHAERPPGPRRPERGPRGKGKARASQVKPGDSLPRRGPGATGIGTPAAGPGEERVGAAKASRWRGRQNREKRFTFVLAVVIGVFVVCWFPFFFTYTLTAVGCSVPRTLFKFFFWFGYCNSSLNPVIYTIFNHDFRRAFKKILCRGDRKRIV
Source text: For this purpose sDNA of human α2A receptor is expressed in Sf9 cells, as described in [Uhlen S, Porter AC and Neubig RR. […] J Pharmacol ExpTher. […] J Pharmacol ExpTher. […] Yohimbine is used as positive control.

imidazoline receptor I2 = experiment: Radioligand binding to imidazoline receptor I2 ([3H] Idazoxan, rat brain membranes); conditions: 10 µM ligand
Experimental: For this purpose membrane species are prepared from rat (Wistar) brain homogenates by homogenization of them in glass homogenizer with the subsequent separation of plasmatic membranes from cell nuclei, mitochondrias and cell wreckages by differential centrifugation. […] After incubation the samples are filtered in vacuo on glass-microfiber filters G/F (Millipor, USA), filters are washed three times with cold solution of medium and radioactivity is measured by scintillation counter MicroBeta 340 (Perkin Elmer, USA). […] Idazoxan is used as positive control.
The tested compounds' binding to the receptor is determined by their ability to displace the radioligand and expressed in percent of displacement (%I). Values of %I are calculated according to the following equation: %I = (TA-CA)/(TA-NA)*100, [formula] wherein: TA - is the overall radioactivity in the presence of radioligand only, CA - is the radioactivity in the presence of radioligand and tested compound and NA - is a radioactivity in the presence of radioligand and Idazoxan (1 µM).

adrenergic receptor α1A = target: T5, adrenergic receptor α1A (Rattus norvegicus, UniProt P43140); experiment: Radioligand binding to adrenergic receptor α1A ([3H] Prazosin, rat submaxillary gland membranes); conditions: for α-Adrenoceptor, % inhibition α1A: 10 µM ligand
T5 construct: membrane species from rat submaxillary glands (rat of Wistar breed) are prepared; from tissue; host or cells: rat (Wistar) submaxillary gland
T5 sequence (P43140 1-466): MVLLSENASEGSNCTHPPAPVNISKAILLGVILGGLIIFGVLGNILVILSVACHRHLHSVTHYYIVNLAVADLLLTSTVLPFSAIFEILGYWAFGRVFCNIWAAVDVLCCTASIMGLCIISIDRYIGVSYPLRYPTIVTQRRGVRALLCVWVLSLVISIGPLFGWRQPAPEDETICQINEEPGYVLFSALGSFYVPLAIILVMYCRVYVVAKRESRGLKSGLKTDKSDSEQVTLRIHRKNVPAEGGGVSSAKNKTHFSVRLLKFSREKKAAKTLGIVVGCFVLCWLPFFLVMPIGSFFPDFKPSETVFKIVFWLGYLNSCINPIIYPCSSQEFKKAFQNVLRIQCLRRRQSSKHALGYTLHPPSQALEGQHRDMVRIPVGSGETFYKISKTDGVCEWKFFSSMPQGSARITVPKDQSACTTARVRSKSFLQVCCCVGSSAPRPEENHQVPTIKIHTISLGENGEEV
Experimental: Determination of investigated compounds' binding to α1A receptor was carried out according to the method described in [Michel AD, Loury DN and Whiting R1. Identification of a single α1A-adrenoceptor corresponding to the α1A-subtype in rat submaxillary gland. […] Prazosin is used as positive control.

[2] = target: T6, recombinant human 5-HT6 receptor (Homo sapiens, UniProt P50406); experiment: Radioligand binding to serotonin receptor 5-HT6 ([3H] Lysergic acid diethylamide, HeLa membranes); conditions: for inhibition at 1 µM: read-out: 5-HT6 % inhibition
T6 construct: expressed in transfected cells; host or cells: HeLa
T6 sequence (P50406 whole entry): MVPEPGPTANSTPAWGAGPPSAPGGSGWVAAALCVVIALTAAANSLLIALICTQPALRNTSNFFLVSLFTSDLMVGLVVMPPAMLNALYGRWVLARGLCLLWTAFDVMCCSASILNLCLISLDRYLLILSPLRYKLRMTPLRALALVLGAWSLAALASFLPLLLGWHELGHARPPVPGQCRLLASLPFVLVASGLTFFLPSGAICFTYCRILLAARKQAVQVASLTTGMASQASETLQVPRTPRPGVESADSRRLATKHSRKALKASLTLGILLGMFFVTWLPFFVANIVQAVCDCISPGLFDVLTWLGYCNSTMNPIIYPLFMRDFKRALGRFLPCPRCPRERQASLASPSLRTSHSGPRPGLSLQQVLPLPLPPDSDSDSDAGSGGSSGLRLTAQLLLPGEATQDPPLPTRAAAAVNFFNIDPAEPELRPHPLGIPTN
Source text: Mol Pharmacol. 43:320-327, 1993]. […] Methiothepin is used as positive control.

human H2 receptor = target: T7, human H2 receptor (Homo sapiens, UniProt P25021); experiment: Radioligand binding to histamine receptor H2 ([125I] Aminopotentidine, CHO-K1 membranes); conditions: for inhibition at 10 µM: read-out: Histamine receptors, % inhibition H2
T7 construct: expressed in transfected cells; host or cells: CHO-K1
T7 sequence (P25021 whole entry): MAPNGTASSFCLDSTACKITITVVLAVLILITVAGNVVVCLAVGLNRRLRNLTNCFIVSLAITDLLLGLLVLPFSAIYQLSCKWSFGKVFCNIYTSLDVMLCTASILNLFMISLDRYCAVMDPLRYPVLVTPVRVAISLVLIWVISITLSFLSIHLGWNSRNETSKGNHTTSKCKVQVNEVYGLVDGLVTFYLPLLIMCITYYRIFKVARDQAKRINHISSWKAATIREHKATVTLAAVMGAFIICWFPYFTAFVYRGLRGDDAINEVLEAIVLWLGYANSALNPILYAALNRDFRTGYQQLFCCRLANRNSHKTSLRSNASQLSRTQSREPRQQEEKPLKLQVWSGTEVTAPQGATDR
Source text: Proc Natl Acad Sci USA. 87(5): 1658-1662, 1990]. […] Proc Natl Acad Sci USA. 87(5): 1658-1662, 1990]. […] Tiotidine is used as positive control.

[3] = target: T8, recombinant human 5-HT2B receptor (Homo sapiens, UniProt P41595); experiment: Radioligand binding to serotonin receptor 5-HT2B ([3H] Lysergic acid diethylamide, CHO-K1 membranes)
T8 construct: expressed in transfected cells; host or cells: CHO-K1
T8 sequence (P41595 whole entry): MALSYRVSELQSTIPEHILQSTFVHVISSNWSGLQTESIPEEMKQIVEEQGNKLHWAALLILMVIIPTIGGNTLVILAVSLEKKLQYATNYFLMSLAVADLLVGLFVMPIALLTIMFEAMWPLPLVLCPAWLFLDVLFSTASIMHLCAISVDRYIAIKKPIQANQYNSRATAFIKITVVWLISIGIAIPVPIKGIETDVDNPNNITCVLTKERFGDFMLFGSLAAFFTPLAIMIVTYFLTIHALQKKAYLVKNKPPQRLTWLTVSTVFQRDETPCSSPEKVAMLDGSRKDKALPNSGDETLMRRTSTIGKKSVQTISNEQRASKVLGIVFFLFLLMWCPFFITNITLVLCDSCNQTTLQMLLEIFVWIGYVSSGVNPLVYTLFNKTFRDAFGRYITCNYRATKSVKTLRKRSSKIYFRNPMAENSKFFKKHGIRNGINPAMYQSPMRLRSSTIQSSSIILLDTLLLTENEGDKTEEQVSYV
Experimental: For this purpose membrane species are prepared from CHO-K1 cells comprising recombinant human 5-HT2B receptor by homogenization of recombinant cells in glass homogenizer with the subsequent separation of plasmatic membranes from cell nuclei, mitochondrias and cell wreckages by differential centrifugation. […] After incubation the samples are filtered in vacuo on glass-microfiber filters G/F (Millipor, USA), filters are washed three times with cold solution of medium and radioactivity is measured by scintillation counter MicroBeta 340 (Perkin Elmer, USA). […] Ketanserin is used as positive control. The tested compounds' binding to the receptor is determined by their ability to displace the radioligand and is expressed in percent of displacement (%I). Values of %I are calculated according to the following equation: %I = (TA-CA)/(TA-NA)*100, [formula] wherein: TA - is the overall radioactivity in the presence of radioligand only, CA - is the radioactivity in the presence of radioligand and tested compound and NA - is the radioactivity in the presence of radioligand and Serotonin (10 µM).

[4] = target: T9, recombinant human 5-HT2A receptor (Homo sapiens, UniProt P28223); experiment: Radioligand binding to serotonin receptor 5-HT2A ([3H] Ketanserin, CHO-K1 membranes)
T9 construct: expressed in transfected cells; host or cells: CHO-K1
T9 sequence (P28223 whole entry): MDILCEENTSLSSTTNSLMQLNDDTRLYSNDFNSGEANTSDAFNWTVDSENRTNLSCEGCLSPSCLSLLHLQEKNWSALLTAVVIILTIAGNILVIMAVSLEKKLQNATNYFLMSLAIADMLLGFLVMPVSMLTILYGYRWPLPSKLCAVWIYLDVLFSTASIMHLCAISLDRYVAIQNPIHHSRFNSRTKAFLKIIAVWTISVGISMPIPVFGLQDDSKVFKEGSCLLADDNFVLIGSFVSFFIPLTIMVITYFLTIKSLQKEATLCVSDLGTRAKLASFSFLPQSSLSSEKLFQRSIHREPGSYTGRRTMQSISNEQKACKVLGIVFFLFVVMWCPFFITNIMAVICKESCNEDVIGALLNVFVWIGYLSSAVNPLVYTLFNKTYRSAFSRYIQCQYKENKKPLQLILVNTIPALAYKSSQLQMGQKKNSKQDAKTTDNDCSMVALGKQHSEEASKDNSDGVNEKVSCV
Source text: 9-C. […] J Neurochem. […] Ketanserin is used as positive control.

human H1 receptor = target: T10, human H1 receptor (Homo sapiens, UniProt P35367); experiment: Radioligand binding to histamine receptor H1 ([3H] Pyrilamine, CHO-K1 membranes)
T10 construct: expressed in transfected cells; host or cells: CHO-K1
T10 sequence (P35367 whole entry): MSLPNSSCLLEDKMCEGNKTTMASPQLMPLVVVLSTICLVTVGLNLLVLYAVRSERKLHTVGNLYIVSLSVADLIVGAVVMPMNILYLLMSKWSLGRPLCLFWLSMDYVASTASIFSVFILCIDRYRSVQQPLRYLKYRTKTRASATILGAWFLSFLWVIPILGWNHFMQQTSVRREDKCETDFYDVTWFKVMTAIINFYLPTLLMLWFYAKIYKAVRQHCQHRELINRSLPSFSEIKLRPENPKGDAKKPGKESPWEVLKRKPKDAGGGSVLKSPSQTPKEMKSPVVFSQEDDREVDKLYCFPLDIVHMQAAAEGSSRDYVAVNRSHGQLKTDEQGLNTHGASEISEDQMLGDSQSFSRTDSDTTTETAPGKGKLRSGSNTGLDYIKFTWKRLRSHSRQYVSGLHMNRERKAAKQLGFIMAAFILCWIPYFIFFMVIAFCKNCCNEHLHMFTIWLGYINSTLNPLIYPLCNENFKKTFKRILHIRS
Source text: Biochem Biophys Res Comm. 197(3): 1601-1608, 1993]. […] Biochem Biophys Res Comm. 197(3): 1601-1608, 1993].
Pyrilamine is used as positive control.

## COc1ccc2c(c1)c1c(n2CCc2ccccn2)CCN(C)C1 [1.1.2(2-4)·2HCl]
Male mice of BALB/c line
  enhancement of memory disturbed by Scopolamine: improve memory

## Cc1ccc2c(c1)c1c(n2CCc2cccnc2)CCCN(C)C1 [1.2.2(3-2)·2HCl]
[1]
  inhibition at 1 µM: 90%
Human α1D receptor
  inhibition at 10 µM: 60%
Adrenergic receptor α1B; read-out: α-Adrenoceptor, % inhibition α1B
  inhibition at 10 µM: 75%
Human α2A receptor; read-out: α-Adrenoceptor, % inhibition α2A
  inhibition at 10 µM: 71%
Imidazoline receptor I2
  % inhibition: 63%
Adrenergic receptor α1A; read-out: α-Adrenoceptor, % inhibition α1A
  inhibition at 10 µM: 61%
[2]
  inhibition at 1 µM: 79%

## Cc1ccc2c(c1)c1c(n2CCc2ccc(C)nc2)CCN(C)C1 [1.1.2(4-5)·1/2NDSA, 2,8-dimethyl-5-[2-(4-methylpyridin-3-yl)ethyl]-1,2,3,4-tetrahydro-1H-pyrido[4,3-b]indole naphtalene-1,5-disulfonate]
Human H2 receptor; 10 µM ligand, 10 µM
  Histamine receptors, % inhibition H2: 100%

## Cc1ccc(S(=O)(=O)n2c3c(c4cc(C)ccc42)CN(C)CCC3)cc1 [1.8.1(3)·HCl]
[1]
  inhibition at 1 µM: 90%
Human α1D receptor
  inhibition at 10 µM: 55%
Human H2 receptor
  inhibition at 10 µM: 82%
Imidazoline receptor I2
  % inhibition: 17%
[3]; 5-HT2B
  nH: 0.784
[3]; read-out: 5-HT2B % inhibition
  inhibition at 1 µM: 101%
[4]; 5-HT2A
  nH: 1.01
[4]; ligand concentration 1 µM
  inhibition at 1 µM: 100%
[2]
  IC50: 535 nM
  Ki: 307 nM
  inhibition at 1 µM: 93%
[2]; 5-HT6
  nH: 1.07
[2]; last block of Table 11: receptor printed 5-HT6 in r18, cell blank in r19-r21
  nH: 0.665
Human H1 receptor; read-out: Histamine receptors, % inhibition H1, 10 µM ligand
  inhibition at 10 µM: 95%

## Cc1ccc2c(c1)c1c(n2CCc2ccc(C)nc2)CCN(C)C1 [1.1.2(4-4)·2CH3SO3H, 2,8-dimethyl-5-[2-(4-methylpyridin-3-yl)ethyl]-1,2,3,4-tetrahydro-1H-pyrido[4,3-b]indole bis-methylsulfonate]
Human H2 receptor; 10 µM ligand
  inhibition at 10 µM: 99%
Human H1 receptor; 10 µM ligand, 10 µM
  Histamine receptors, % inhibition H1: 102%

## Cc1ccc2c(c1)c1c(n2CCc2ccncc2)CCCN(C)C1 [1.2.2(5-2)]
Human α1D receptor
  α-Adrenoceptor, % inhibition α1D: 68%
Adrenergic receptor α1B
  α-Adrenoceptor, % inhibition α1B: 89%
Imidazoline receptor I2
  % inhibition: 72%
Adrenergic receptor α1A
  α-Adrenoceptor, % inhibition α1A: 74%

## Cc1ccc2c(c1)c1c(n2CCc2ccc(C)nc2)CCCN(C)C1 [1.2.2(4-1)]
Human α1D receptor
  α-Adrenoceptor, % inhibition α1D: 68%
Adrenergic receptor α1B
  α-Adrenoceptor, % inhibition α1B: 85%
Human α2A receptor; 10 µM ligand
  α-Adrenoceptor, % inhibition α2A: 79%
Imidazoline receptor I2
  % inhibition: 80%
Adrenergic receptor α1A
  α-Adrenoceptor, % inhibition α1A: 80%
